# Source: PubChem BioAssay AID1259407 (Chemical Carcinogenesis Research Information System (CCRIS), 2018)
# Activity calls are given as the source filed them. No rule for the calls is given here.
# Test system: CCRIS mutagenicity, Ames/micronucleus/aberration tests
# Assay: CCRIS mutagenicity studies
# [1] = Test System: AMES SALMONELLA TYPHIMURIUM, Strain/Indicator: TA98, Metabolic Activation: NONE, Method: PREINCUBATION
# [2] = Test System: AMES SALMONELLA TYPHIMURIUM, Strain/Indicator: TA100, Metabolic Activation: NONE, Method: PREINCUBATION
# [3] = Test System: AMES SALMONELLA TYPHIMURIUM, Strain/Indicator: TA1535, Metabolic Activation: NONE, Method: PREINCUBATION
# [4] = Test System: AMES SALMONELLA TYPHIMURIUM, Strain/Indicator: TA1537, Metabolic Activation: NONE, Method: PREINCUBATION
# [5] = Test System: AMES SALMONELLA TYPHIMURIUM, Strain/Indicator: TA1535, Metabolic Activation: NONE, Method: STANDARD PLATE
# [6] = Test System: AMES SALMONELLA TYPHIMURIUM, Strain/Indicator: TA1538, Metabolic Activation: NONE, Method: STANDARD PLATE
# [7] = Test System: AMES SALMONELLA TYPHIMURIUM, Strain/Indicator: TA100, Metabolic Activation: NONE, Method: STANDARD PLATE
compound,measurement,setting,value
CCCBr,mutagenic call,"End Point: In vitro micronucleus, Test System: Chinese Hamster Ovary (CHO-WBL) cells, Metabolic Activation: None",inactive; negative
same,mutagenic call,[1],inactive; negative
same,mutagenic call,"Test System: AMES SALMONELLA TYPHIMURIUM, Strain/Indicator: TA98, Metabolic Activation: RAT LIVER S-9, PHENOBARBITAL AND BETA-NAPHTHOFLAVONE, Method: PREINCUBATION",inactive; negative
same,mutagenic call,[2],inactive; negative
same,mutagenic call,"Test System: AMES SALMONELLA TYPHIMURIUM, Strain/Indicator: TA100, Metabolic Activation: RAT LIVER S-9, PHENOBARBITAL AND BETA-NAPHTHOFLAVONE, Method: PREINCUBATION",inactive; negative
same,mutagenic call,"Test System: AMES SALMONELLA TYPHIMURIUM, Strain/Indicator: TA102, Metabolic Activation: NONE, Method: PREINCUBATION",inactive; negative
same,mutagenic call,"Test System: AMES SALMONELLA TYPHIMURIUM, Strain/Indicator: TA102, Metabolic Activation: RAT LIVER S-9, PHENOBARBITAL AND BETA-NAPHTHOFLAVONE, Method: PREINCUBATION",inactive; negative
same,mutagenic call,"Test System: AMES SALMONELLA TYPHIMURIUM, Strain/Indicator: TA104, Metabolic Activation: NONE, Method: PREINCUBATION",inactive; negative
same,mutagenic call,"Test System: AMES SALMONELLA TYPHIMURIUM, Strain/Indicator: TA104, Metabolic Activation: RAT LIVER S-9, PHENOBARBITAL AND BETA-NAPHTHOFLAVONE, Method: PREINCUBATION",inactive; negative
same,mutagenic call,[3],inactive; negative
same,mutagenic call,"Test System: AMES SALMONELLA TYPHIMURIUM, Strain/Indicator: TA1535, Metabolic Activation: RAT LIVER S-9, PHENOBARBITAL AND BETA-NAPHTHOFLAVONE, Method: PREINCUBATION",inactive; negative
same,mutagenic call,[4],inactive; negative
same,mutagenic call,"Test System: AMES SALMONELLA TYPHIMURIUM, Strain/Indicator: TA1537, Metabolic Activation: RAT LIVER S-9, PHENOBARBITAL AND BETA-NAPHTHOFLAVONE, Method: PREINCUBATION",inactive; negative
same,mutagenic call,"Test System: E.COLI, Strain/Indicator: WP2UVRA/PKM101, Metabolic Activation: NONE, Method: PREINCUBATION",inactive; negative
same,mutagenic call,"Test System: E.COLI, Strain/Indicator: WP2UVRA/PKM101, Metabolic Activation: RAT LIVER S-9, PHENOBARBITAL AND BETA-NAPHTHOFLAVONE, Method: PREINCUBATION",inactive; negative
same,mutagenic call,"Test System: E.COLI, Strain/Indicator: WP2UVRA, Metabolic Activation: NONE, Method: PREINCUBATION",inactive; negative
same,mutagenic call,"Test System: E.COLI, Strain/Indicator: WP2UVRA, Metabolic Activation: RAT LIVER S-9, PHENOBARBITAL AND BETA-NAPHTHOFLAVONE, Method: PREINCUBATION",inactive; negative
CC(C)(C)N(Cc1ccccc1)CC(O)c1ccc(O)c(CO)c1 (stereo not given),mutagenic call,"Test System: AMES SALMONELLA TYPHIMURIUM, Strain/Indicator: TA98(PKM101), Metabolic Activation: NONE, Method: STANDARD PLATE",inactive; negative
same,mutagenic call,"Test System: AMES SALMONELLA TYPHIMURIUM, Strain/Indicator: TA100(PKM101), Metabolic Activation: NONE, Method: STANDARD PLATE",active; positive
same,mutagenic call,[5],inactive; negative
same,mutagenic call,[6],inactive; negative
CN(C)c1ccc([C@H]2C[C@]3(C)[C@@H](CC[C@]3(O)CCCO)[C@@H]3CCC4=CC(=O)CCC4=C32)cc1,mutagenic call,"End Point: IN VITRO CHROMOSOMAL ABERRATIONS, Test System: HUMAN PERIPHERAL LYMPHOCYTES, Metabolic Activation: NONE",inactive; negative
same,mutagenic call,"End Point: IN VITRO CHROMOSOMAL ABERRATIONS, Test System: HUMAN PERIPHERAL LYMPHOCYTES, Metabolic Activation: RAT, LIVER, S-9, AROCLOR 1254",inactive; negative
same,mutagenic call,"End Point: IN VIVO MICRONUCLEUS, Test System: BONE MARROW POLYCHROMATIC ERYTHROCYTES, Species: MOUSE, Strain/Sex: NMRI/MALE, FEMALE, Route: INTRAGASTRIC",inactive; negative
same,mutagenic call,[1],inactive; negative
same,mutagenic call,"Test System: AMES SALMONELLA TYPHIMURIUM, Strain/Indicator: TA98, Metabolic Activation: NONE, Method: STANDARD PLATE",inactive; negative
same,mutagenic call,"Test System: AMES SALMONELLA TYPHIMURIUM, Strain/Indicator: TA98, Metabolic Activation: RAT, LIVER, S-9, AROCLOR 1254, Method: PREINCUBATION",inactive; negative
same,mutagenic call,"Test System: AMES SALMONELLA TYPHIMURIUM, Strain/Indicator: TA98, Metabolic Activation: RAT, LIVER, S-9, AROCLOR 1254, Method: STANDARD PLATE",inactive; negative
same,mutagenic call,[2],inactive; negative
same,mutagenic call,[7],inactive; negative
same,mutagenic call,"Test System: AMES SALMONELLA TYPHIMURIUM, Strain/Indicator: TA100, Metabolic Activation: RAT, LIVER, S-9, AROCLOR 1254, Method: PREINCUBATION",inactive; negative
same,mutagenic call,"Test System: AMES SALMONELLA TYPHIMURIUM, Strain/Indicator: TA100, Metabolic Activation: RAT, LIVER, S-9, AROCLOR 1254, Method: STANDARD PLATE",inactive; negative
same,mutagenic call,[3],inactive; negative
same,mutagenic call,[5],inactive; negative
same,mutagenic call,"Test System: AMES SALMONELLA TYPHIMURIUM, Strain/Indicator: TA1535, Metabolic Activation: RAT, LIVER, S-9, AROCLOR 1254, Method: PREINCUBATION",inactive; negative
same,mutagenic call,"Test System: AMES SALMONELLA TYPHIMURIUM, Strain/Indicator: TA1535, Metabolic Activation: RAT, LIVER, S-9, AROCLOR 1254, Method: STANDARD PLATE",inactive; negative
same,mutagenic call,[4],inactive; negative
same,mutagenic call,"Test System: AMES SALMONELLA TYPHIMURIUM, Strain/Indicator: TA1537, Metabolic Activation: NONE, Method: STANDARD PLATE",inactive; negative
same,mutagenic call,"Test System: AMES SALMONELLA TYPHIMURIUM, Strain/Indicator: TA1537, Metabolic Activation: RAT, LIVER, S-9, AROCLOR 1254, Method: PREINCUBATION",inactive; negative
same,mutagenic call,"Test System: AMES SALMONELLA TYPHIMURIUM, Strain/Indicator: TA1537, Metabolic Activation: RAT, LIVER, S-9, AROCLOR 1254, Method: STANDARD PLATE",inactive; negative
same,mutagenic call,"Test System: AMES SALMONELLA TYPHIMURIUM, Strain/Indicator: TA1538, Metabolic Activation: NONE, Method: PREINCUBATION",inactive; negative
same,mutagenic call,[6],inactive; negative
same,mutagenic call,"Test System: AMES SALMONELLA TYPHIMURIUM, Strain/Indicator: TA1538, Metabolic Activation: RAT, LIVER, S-9, AROCLOR 1254, Method: PREINCUBATION",inactive; negative
same,mutagenic call,"Test System: AMES SALMONELLA TYPHIMURIUM, Strain/Indicator: TA1538, Metabolic Activation: RAT, LIVER, S-9, AROCLOR 1254, Method: STANDARD PLATE",inactive; negative
same,mutagenic call,"Test System: CHINESE HAMSTER V-79, Strain/Indicator: V-79 (HGPRT)/6-THIOGUANINE, Metabolic Activation: NONE",inactive; negative
same,mutagenic call,"Test System: CHINESE HAMSTER V-79, Strain/Indicator: V-79 (HGPRT)/6-THIOGUANINE, Metabolic Activation: RAT, LIVER, S-9, AROCLOR 1254",inactive; negative
C[C@@]12CC[C@@H]3[C@@](CC[C@H]4[C@@]3(C)CCC[C@@]4(C)C(=O)O)(CC1=O)C2,mutagenic call,"Test System: AMES SALMONELLA TYPHIMURIUM, Strain/Indicator: TM677, Metabolic Activation: RAT, LIVER, S-9, AROCLOR 1254, Method: PREINCUBATION",inactive; negative
Nc1ccc2snc(Cl)c2c1,mutagenic call,[7],active; positive
c1cncc(-c2cccnc2)c1,mutagenic call,"Test System: AMES SALMONELLA TYPHIMURIUM, Strain/Indicator: TA97, Metabolic Activation: RAT, LIVER, S-9, PHENOBARBITAL, Method: STANDARD PLATE",inactive; negative
same,mutagenic call,"Test System: AMES SALMONELLA TYPHIMURIUM, Strain/Indicator: TA98, Metabolic Activation: RAT, LIVER, S-9, PHENOBARBITAL, Method: STANDARD PLATE",inactive; negative
same,mutagenic call,"Test System: AMES SALMONELLA TYPHIMURIUM, Strain/Indicator: TA100, Metabolic Activation: RAT, LIVER, S-9, PHENOBARBITAL, Method: STANDARD PLATE",active; positive
same,mutagenic call,"Test System: AMES SALMONELLA TYPHIMURIUM, Strain/Indicator: TA1535, Metabolic Activation: RAT, LIVER, S-9, PHENOBARBITAL, Method: STANDARD PLATE",inactive; negative
same,mutagenic call,"Test System: AMES SALMONELLA TYPHIMURIUM, Strain/Indicator: TA1537, Metabolic Activation: RAT, LIVER, S-9, PHENOBARBITAL, Method: STANDARD PLATE",inactive; negative
same,mutagenic call,"Test System: AMES SALMONELLA TYPHIMURIUM, Strain/Indicator: TA1538, Metabolic Activation: RAT, LIVER, S-9, PHENOBARBITAL, Method: STANDARD PLATE",active; positive
c1cnc2c3c(ccc2c1)CC[C@H]1O[C@@H]31,mutagenic call,[7],active; positive
